Test system: eggs of Tetranychus cinnabarinus
Experiment: Effects of sulfite compounds 1-30 and 1′-30′ on hatching of eggs of Tetranychus cinnabarinus at 100 ppm, leaf disc method
Assay type: in vivo
Settings: 7 days after insecticide delivery
Method: • (1) Preparation of leaf discs containing eggs: 20 female adult mites of Tetranychus cinnabarinus were transferred onto leaf discs of Vicia faba with a diameter of 2.0 cm (with wetted filter paper at the bottom), then covered it with a lidded culture dish and cultivated under moisturizing conditions, the adult mites were removed within 36 hours and microscopic examination and counting were performed on leaf discs containing eggs. • (2) Investigation of egg population base: Before pesticide soaking, a microscopic examination was conducted on the egg basic number of each leaf disc, with 2 replicates set for each treatment. • (3) Pesticide soaking treatment: The leaf butterflies loaded with mite eggs were soaked in clear water and sulfite compounds for 10 seconds, respectively, then taken out and cultivated under moisturizing conditions. Each treatment should be repeated for no less than 3 times. • (4) Cultivation and observation: The […] were cultivated under normal conditions. Five days after insecticide delivery, the hatching status of mite eggs was investigated. • Note: The temperature and humidity conditions of the constant temperature and humidity incubator after the treatment should be controlled so as to avoid excessive temperature differences, which may cause generation and dripping of condensate water in the culture dish, resulting in abnormal death of eggs due to soaking in water; it is also necessary to ensure sufficient strong ambient light, without directing irradiating the leaves. • (5) Survey of Results: The experimental materials of each treatment group were regularly hydrated and moisturized, and the hatching of eggs was observed. On the 7th day after insecticide delivery, the number of hatched eggs for each treatment was recorded, and the survey of results was recorded in the original notebook. According to the experimental requirements and characteristics of agents, the survey time can be shortened or extended.
• 1) Surveying and recording the number of hatched eggs for each treatment. • 2) Photographing and recording whether there was any pesticide damage to the leaf discs of Vicia faba. • 3) Recording the developmental status of experimental mite eggs, behavior status of nymph mites, including abnormal phenomena such as delayed or stopped development of mite eggs, difficulty in breaking hull for nymph mites, or painful struggles after hatching, etc. • (6) Calculation method: Based on the survey data, the prevention and control effect of each treatment was calculated according to the following formula, and the calculation results were kept to two decimal places. […]

## CC(COS(=O)OCCF)Oc1cc(Cl)ccc1Cl (stereo not shown) [Compound 7]
Replicate 2
  Hatching rate (%), Replicate 2: 8.15%

## CC(COc1cc(Cl)ccc1Cl)OS(=O)OCCBr (stereo not shown) [Compound 9′]
  Hatching rate (%), Replicate 3: 15.15%

## CC(C)(COS(=O)OCCBr)Oc1ccc(Cl)cc1Cl (stereo not shown) [Compound 12′]
  Hatching rate (%), Replicate 3: 10.39%

## O=C(OCCF)OC1COCC1Oc1ccc(Cl)cc1Cl (stereo not shown) [Compound 25]
  Hatching rate (%), Replicate 3: 0.00%
